Laboratory results as given in ChEMBL document CHEMBL4043247, “Design, synthesis and biological evaluation of 8-substituted-6-hydrazonoindolo[2,1-b]quinazolin-12(6H)-one scaffolds as potential cytotoxic agents: IDO-1 targeting molecular docking studies” (Bioorg Med Chem Lett, 2017).

What was measured:
[1] = tested on: MCF7; assay: Cytotoxicity against human MCF7 cells after 6 days by MTT assay; assay type: functional, cell-based; details: MCF7, 144 h
[2] = tested on: A549; assay: Cytotoxicity against human A549 cells after 6 days by MTT assay; assay type: functional, cell-based; details: A549, 144 h
[3] = tested on: HeLa; assay: Cytotoxicity against human HeLa cells after 6 days by MTT assay; assay type: functional, cell-based; details: 144 h
[4] = Antioxidant activity assessed as DPPH radical scavenging activity incubated for 30 mins under dark condition by UV-vis spectrophotometric method; assay type: functional
[5] = tested on: HEK293; assay: Cytotoxicity against HEK293 cells after 6 days by MTT assay; assay type: cell-based; details: Homo sapiens, HEK293, 144 h

IC50 [4] [µM] | Structure (SMILES) | IC50 [1] [µM] | IC50 [2] [µM] | IC50 [3] [µM] | IC50 [5] [µM]
20.1 | CC(/C=C(\O)c1ccccc1)=N\N=C1\c2cc(F)ccc2-n2c1nc1ccccc1c2=O | 20.4 | 32 | 24.5 | –
28.7 | COc1cccc(/C=N/N=C2/c3cc([N+](=O)[O-])ccc3-n3c2nc2ccccc2c3=O)c1O | 34.2 | 40.1 | 38 | –
10.9 | COc1cccc(/C=N/N=C2/c3cc(I)ccc3-n3c2nc2ccccc2c3=O)c1O | 30.4 | 32.3 | 29.2 | –
11.2 | N/N=C1/c2cc(-c3ccncc3)ccc2-n2c1nc1ccccc1c2=O | 50.4 | 47.8 | 44.1 | –
11.6 | CC(/C=C(\O)c1ccccc1)=N\N=C1\c2cc(I)ccc2-n2c1nc1ccccc1c2=O | 19.9 | 20.4 | 18.8 | 82.5
5.02 | CC(/C=C(\O)c1ccccc1)=N\N=C1\c2cc(-c3ccc(C(=O)O)cc3)ccc2-n2c1nc1ccccc1c2=O | 9.42 | 7.19 | 9.42 | 64.1
22 | N/N=C1/c2cc(-c3ccc(C(=O)O)cc3)ccc2-n2c1nc1ccccc1c2=O | 61.1 | 62.2 | 54.3 | –
6.23 | CC(/C=C(\O)c1ccccc1)=N\N=C1\c2cc(-c3ccncc3)ccc2-n2c1nc1ccccc1c2=O | 11.6 | 6.01 | 12.2 | 76.1
22.2 | COc1cccc(/C=N/N=C2/c3cc(Cl)ccc3-n3c2nc2ccccc2c3=O)c1O | 35.4 | 40.8 | 36.6 | –
4.98 | COc1cccc(/C=N/N=C2/c3cc(-c4ccncc4)ccc3-n3c2nc2ccccc2c3=O)c1O | 24.8 | 32.9 | 24.8 | –
5.31 | COc1cccc(/C=N/N=C2/c3cc(-c4ccc(C(=O)O)cc4)ccc3-n3c2nc2ccccc2c3=O)c1O | 37.1 | 39.2 | 32.3 | –
16.4 | N/N=C1/c2cc(F)ccc2-n2c1nc1ccccc1c2=O | 54.6 | 44.6 | 67.7 | –
24.9 | N/N=C1/c2cc(I)ccc2-n2c1nc1ccccc1c2=O | 44.9 | 43.4 | 51.1 | –
12.5 | CC(/C=C(\O)c1ccccc1)=N\N=C1\c2cc(Cl)ccc2-n2c1nc1ccccc1c2=O | 19.7 | 18.1 | 23.6 | 71
19.9 | N/N=C1/c2cc(Cl)ccc2-n2c1nc1ccccc1c2=O | 67.5 | 62.1 | 55.7 | –
27.3 | N/N=C1/c2cc([N+](=O)[O-])ccc2-n2c1nc1ccccc1c2=O | 53.6 | 45.6 | 50.3 | –
29.7 | CC(/C=C(\O)c1ccccc1)=N\N=C1\c2cc([N+](=O)[O-])ccc2-n2c1nc1ccccc1c2=O | 31.5 | 28.4 | 33.1 | –
21.1 | COc1cccc(/C=N/N=C2/c3cc(F)ccc3-n3c2nc2ccccc2c3=O)c1O | 35.5 | 31.2 | 34.3 | –
3.48 | O=C1O[C@H]([C@@H](O)CO)C(O)=C1O [ASCORBIC ACID] | – | – | – | –
